# Like-named read-outs stand apart in the source and are kept apart here.
# Key:
# EGFR (L858R T790M C797S) = molecular target: T1, EGFR (L858R T790M C797S) (Homo sapiens, UniProt P00533, C797S/L858R/T790M); assay: Biochemical EGFR inhibition assay (Caliper mobility shift), EGFR LRTMCS mutant; settings: inhibitory activity against EGFR LRTMCS mutant; apparent IC50; read-out: Ext Enz LRTMCS
# T1 construct: purchased SignalChem E10-122VG
# Method in brief: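 Kinase reactions at 25 °C run to 10–20% peptide phosphorylation, stopped with 35 mM EDTA. Phosphorylated product and substrate separated electrophoretically by mobility shift. Apparent IC50 from percent activity versus log compound concentration.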
# [1] = system: phosphorylation of EGFR (Tyr1068) in NCI-H1975 cell line that harbors the EGFR L858R T790M mutations; assay: NCI-H1975 pEGFR AlphaLISA assay; assay type: cell-based; settings: 4-5 hours incubation, read-out: Ext pEGFR H1975
# Method in brief: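 NCI-H1975 cells (EGFR L858R/T790M) seeded overnight, then treated with compound for 4-5 h at 37 °C/5% CO2. After lysis, p-EGFR (Tyr1068) quantified by AlphaLISA SureFire Ultra with acceptor then donor beads; IC50 fitted from percent inhibition versus log concentration.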
# [2] = Homo sapiens, NCI-H1975, inhibition of phosphorylation of mutant EGFR in NCI-H1975 cells
# T1 sequence (P00533 25-1210 T790M/C797S/L858R): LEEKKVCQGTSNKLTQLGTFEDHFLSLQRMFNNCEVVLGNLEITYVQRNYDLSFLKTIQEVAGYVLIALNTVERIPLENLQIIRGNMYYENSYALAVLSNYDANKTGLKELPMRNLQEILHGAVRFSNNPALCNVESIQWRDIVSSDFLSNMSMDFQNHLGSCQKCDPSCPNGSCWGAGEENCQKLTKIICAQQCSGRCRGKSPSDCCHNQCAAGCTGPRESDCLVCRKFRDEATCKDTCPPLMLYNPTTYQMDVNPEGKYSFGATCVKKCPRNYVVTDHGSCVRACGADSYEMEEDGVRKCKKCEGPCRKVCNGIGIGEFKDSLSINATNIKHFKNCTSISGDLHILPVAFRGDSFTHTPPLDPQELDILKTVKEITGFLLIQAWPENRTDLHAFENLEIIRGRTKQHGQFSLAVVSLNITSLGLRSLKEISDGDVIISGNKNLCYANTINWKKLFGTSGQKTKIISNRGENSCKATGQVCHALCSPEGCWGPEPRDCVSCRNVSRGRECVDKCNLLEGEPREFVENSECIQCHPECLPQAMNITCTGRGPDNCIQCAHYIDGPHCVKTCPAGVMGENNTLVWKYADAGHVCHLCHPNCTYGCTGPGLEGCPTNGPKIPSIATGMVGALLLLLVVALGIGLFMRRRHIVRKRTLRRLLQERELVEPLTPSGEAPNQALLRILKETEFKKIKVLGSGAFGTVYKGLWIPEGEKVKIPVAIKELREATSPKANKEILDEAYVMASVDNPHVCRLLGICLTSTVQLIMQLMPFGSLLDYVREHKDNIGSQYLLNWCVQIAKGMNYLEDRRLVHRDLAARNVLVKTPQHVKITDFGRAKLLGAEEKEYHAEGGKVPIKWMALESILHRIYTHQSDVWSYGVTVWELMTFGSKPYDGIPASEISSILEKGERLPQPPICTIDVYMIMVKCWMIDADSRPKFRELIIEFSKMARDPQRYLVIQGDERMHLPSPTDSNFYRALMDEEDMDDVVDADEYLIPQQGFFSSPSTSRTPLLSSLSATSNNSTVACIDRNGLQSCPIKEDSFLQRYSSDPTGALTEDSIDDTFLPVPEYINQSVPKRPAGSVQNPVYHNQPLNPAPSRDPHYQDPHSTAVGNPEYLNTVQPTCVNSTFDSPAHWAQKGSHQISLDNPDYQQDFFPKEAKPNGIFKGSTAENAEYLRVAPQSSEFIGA
IC50 (EGFR (L858R T790M C797S)) [nM],"IC50 [1, 2] [nM]",IC50 ([1]; inhibition of phosphorylation of mutant EGFR in NCI-H1975 cells) [nM],Compound
≤ 15,≤ 10,–,"CC(C)c1ncc(N2C[C@H](CS(C)(=O)=O)[C@H]2C)c2cnc(Nc3ccnc(N4CC[C@H]5COC[C@H]54)n3)cc12 (single isomer, unassigned) [Compound 267, N-(2-((3aR,6aS)-hexahydro-1H-furo[3,4-b]pyrrol-1-yl)pyrimidin-4-yl)-5-isopropyl-8-((2R,3S)-2-methyl-3-((methylsulfonyl)methyl)azetidin-1-yl)-2,6-naphthyridin-3-amine or N-(2-((3aS,6aR)-hexahydro-1H-furo[3,4-b]pyrrol-1-yl)pyrimidin-4-yl)-5-isopropyl-8-((2R,3S)-2-methyl-3-((methylsulfonyl)methyl)azetidin-1-yl)-2,6-naphthyridin-3-amine]"
30.1 to 100,20.1 to 30,–,"CC(C)c1ccc(N2C[C@H](CS(C)(=O)=O)[C@H]2C)c2cnc(Nc3ccnc(N4CC[C@H](F)[C@H](O)C4)n3)cc12 (single isomer, unassigned) [Compound 268, (3R,4S)-4-fluoro-1-[4-({8-[(2R,3S)-3-(methanesulfonylmethyl)-2-methylazetidin-1-yl]-5-(propan-2-yl)isoquinolin-3-yl}amino)pyrimidin-2-yl]piperidin-3-ol or (3S,4R)-4-fluoro-1-[4-({8-[(2R,3S)-3-(methanesulfonylmethyl)-2-methylazetidin-1-yl]-5-(propan-2-yl)isoquinolin-3-yl}amino)pyrimidin-2-yl]piperidin-3-ol]"
≤ 15,≤ 10,–,"CC(C)c1ccc(N2C[C@H](CS(C)(=O)=O)[C@H]2C)c2cnc(Nc3ccnc(N4CC[C@@H](F)[C@@H](O)C4)n3)cc12 (single isomer, unassigned) [Compound 269, (3S,4R)-4-fluoro-1-[4-({8-[(2R,3S)-3-(methanesulfonylmethyl)-2-methylazetidin-1-yl]-5-(propan-2-yl)isoquinolin-3-yl}amino)pyrimidin-2-yl]piperidin-3-ol or (3R,4S)-4-fluoro-1-[4-({8-[(2R,3S)-3-(methanesulfonylmethyl)-2-methylazetidin-1-yl]-5-(propan-2-yl)isoquinolin-3-yl}amino)pyrimidin-2-yl]piperidin-3-ol]"
≤ 15,10.1 to 20,–,"CC(C)c1ccc(N2C[C@H](CS(C)(=O)=O)[C@H]2C)c2cnc(Nc3ccnc(N4CC[C@](F)(CO)C4)n3)cc12 (single isomer, unassigned) [Compound 270, [(3R)-3-fluoro-1-[4-({8-[(2R,3S)-3-(methanesulfonylmethyl)-2-methylazetidin-1-yl]-5-(propan-2-yl)isoquinolin-3-yl}amino)pyrimidin-2-yl]pyrrolidin-3-yl]methanol or [(3S)-3-fluoro-1-[4-({8-[(2R,3S)-3-(methanesulfonylmethyl)-2-methylazetidin-1-yl]-5-(propan-2-yl)isoquinolin-3-yl}amino)pyrimidin-2-yl]pyrrolidin-3-yl]methanol]"
≤ 15,–,≤ 10,"CC(C)c1ccc(N2C[C@H](CS(C)(=O)=O)[C@H]2C)c2cnc(Nc3ccnc(N4CC[C@](F)(CO)C4)n3)cc12 (single isomer, unassigned) [Compound 271, [(3S)-3-fluoro-1-[4-({8-[(2R,3S)-3-(methanesulfonylmethyl)-2-methylazetidin-1-yl]-5-(propan-2-yl)isoquinolin-3-yl}amino)pyrimidin-2-yl]pyrrolidin-3-yl]methanol or [(3R)-3-fluoro-1-[4-({8-[(2R,3S)-3-(methanesulfonylmethyl)-2-methylazetidin-1-yl]-5-(propan-2-yl)isoquinolin-3-yl}amino)pyrimidin-2-yl]pyrrolidin-3-yl]methanol]"

# — US12172983B2, “EGFR inhibitors” (Blueprint Medicines Corporation, priority 2019, dated 2024)
